SMILES strings stand for the structures. Non-standard residues stand in square brackets, D forms with d. Residues, ends and D or L forms follow the SMILES beside them. *: point of attachment. Nle = CCCC[C@H](N)C(=O)O; Cbz = O=C(OCc1ccccc1)*; CH2F = FC*

Common to all, as to type: cell-based
Experiment [1] relates to Ad-LAPTM5-infected GOTO cells. Put plainly: Cell death frequency along with LAPTM5 accumulation, trypan blue exclusion. Conditions: treated one day after Ad-LAPTM5 infection for additional one day. As to the method:
As in the case of (a), the cells that had died upon treatment were assayed via trypan blue exclusion. A vertical line represents the standard deviation of two experiments.
(§1) Accordingly, whether or not LAPTM5 would undergo proteasomal or lysosomal proteolysis and whether or not LAPTM5 accumulation would be important for cell death were inspected. One day after Ad-LAPTM5 infection, the cells were treated with a proteasome inhibitor (ALLN or MG132) or a lysosome inhibitor (Bailomycin A1 and NH4Cl) for additional one day. Thereafter, the cells were recovered, samples were prepared, and Western blot analysis was performed. […] Further, this accumulation was also confirmed via fluorescent staining using the LAPTM5 antibody (FIG. 4b). […] Thus, LAPTM5 was considered to undergo proteasomal and lysosomal proteolysis, and LAPTM5 accumulation was considered to be deeply involved with induction of cell death. In order to examine whether or not LAPTM5 accumulation would be essential for induction of cell death, the influence of transfection of siRNA against LAPTM5 was then examined.

In experiment [2] the test system is LAPTM5 in Ad-LAPTM5-infected GOTO cells. Put plainly: LAPTM5 accumulation upon blocking proteasomal or lysosomal degradation, Western blot and fluorescent staining. Conditions: treated one day after Ad-LAPTM5 infection for additional one day. As to the method:
The cells were treated with a proteasome inhibitor (ALLN or MG132) or a lysosomal degradation inhibitor (Bafilimycin A1 or […]) 1 day later. The cells were recovered 1 day later, the samples were prepared, and Western blot analysis was then carried out. The prepared samples were subjected to SDS-PAGE, and Western blot analysis was carried out using relevant antibodies.
As with the case of (a), the cells were treated, fixed, subjected to the immune reaction using the LAPTM5 antibody, and visualized with the use of the Texas Red complex secondary antibody.
After the control or LAPTM5 siRNA was transfected, the cells were treated as with the case of (a), and the samples were prepared. Western blot analysis was carried out using the LAPTM5 antibody.
as §1

Experiment [3] concerns GOTO cells. Put plainly: Treatment with MPP+ or H2O2: cell death, LAPTM5 expression (quantitative RT-PCR), MYCN expression (Western blot). Particulars: for LAPTM5 expression / frequency of cell death: MPP+ 1 or 2 mM 24 hours, H2O2 100 or 200 uM 48 hours; for MYCN expression: MPP+ or H2O2 treatment. As to the method: In FIG. 5(a), the GOTO cells were treated with MPP+ (1 or 2 mM) for 24 hours or with H2O2 (100 or 200 uM) for 48 hours. Thereafter, the dead cells were assayed via trypan blue exclusion. The LAPTM5 expression level was analyzed via quantitative RT-PCR. A vertical line represents the standard deviation of two experiments.
The prepared samples were subjected to SDS-PAGE, and Western blot analysis was carried out using relevant antibodies.
The cause for NB cell degeneration upon regression of favorable NB tumors has not yet been elucidated. […] This indicates a common mechanism between NB tumor regression and cell degeneration in the case of neurodegenerative diseases. Mitochondrial injury and oxidative stress are known to be deeply involved in neuron degeneration in the case of neurodegenerative disease. […] MYCN proteins are known to not only activate but also suppress transcription of various target genes. Accordingly, MYCN proteins that have been activated via amplification were considered to suppress activation of LAPTM5 transcription induced by stress. Thus, whether or not MYCN would directly bind to a site in the vicinity of the transcription initiation point of the LAPTM5 gene was inspected via ChIP assay. […] Meanwhile, the IMR32 cell line is known to differentiate into nerve cells via treatment with retinoic acid.

Another experiment relates to IMR32 cells. Put plainly: Frequency of dead cells via trypan blue exclusion after adenovirus infection. Particulars: zVAD 100 μM. As to the method:
(§2) The cells that had been sowed under the same conditions as in (b) were infected with the same MOIs of Ad-LacZ or Ad-LAPTM5. Also, the cell lines were treated or not treated with the pan-caspase inhibitor, zVAD-fink. The number of dead cells was determined via trypan blue exclusion 2 days and 4 days after infection and was indicated in terms of percentage. A vertical line represents the standard deviation of two experiments.
(§3) In order to inspect whether or not LAPTM5 expression is associated with cell death of neuroblastoma cells, the influence of forced LAPTM5 expression in the neuroblastoma cell line was inspected using the adenovirus-mediated expression system. Cell death and the survival rate were assayed by sowing the cells on a 24-well plate and infecting the cells with the selected MOIs of viruses (multiplicities of infection; PFU/cell). The number of dead cells was determined via trypan blue exclusion 2 or 4 days after infection. The pan-caspase inhibitor, zVAD-fml, was used at a concentration of 100 μM. At least 200 cells were counted in each experiment. The number of survived cells was determined via colorimetric assay using a water-soluble tetrazolium salt (the cell counting kit-8; Dojindo Laboratories).

Experiment [4] has as its system GOTO cells. The experiment is described as above. Particulars: zVAD 100 μM. As to the method: as §2, §3
Experiment [5] relates to GOTO cells that stably express GFP-LC3. Put plainly: Treatment with an LMP inducer, immunoblot of GFP-LC3 type II and p62/SQSTM1. Conditions: CPX 100 or 300 μg/ml. The protocol: The GOTO cells (1×10^6 cells/well) that stably express GFP-LC3 were sowed on a 6-well plate and treated with ciprofloxican (CPX) (100 or 300 μg/ml) or a solvent thereof (0.1N hydrochloric acid) so as to induce LMP. The total cell extract obtained from the treated cells was electrophoresed via SDS-PAGE and subjected to immunoblot analysis using antibodies reacting with relevant proteins.
LAPTM5 is known to be a membrane protein that localizes in the lysosome. […] Such changes in LTR staining patterns result from LMP, which indicates destabilization and destruction of the lysosome. LMP was observed along with an increase in LAPTM5-induced cell death (2.7 times in GOTO cell (p=0.0007) and 5.4 times in IMR32 cell (p=0.0108), compared with Ad-LacZ cell; FIG. 11). […] Accordingly, LAPTM5-induced LMP was deduced to induce blocking of the autophagy pathway. […] In conformity with the results of in vitro observation, elevated expression of p62/SQSTM1, ubiquitinated proteins, and cathepsin D was also observed via immunohistological staining (FIG. 3f). […] At the same time, lysosome instability induced by LAPTM5 was considered to induce accumulation of immature autophagic vesicles and ubiquitinated proteins.

As for `Cl.N` [NH4Cl], the cell death frequency entry in experiment [1] is recorded as “significantly increased”. For the same compound, in experiment [2], the “accumulation of expressed LAPTM5” value is recorded as “significantly accumulated”.

In the case of `OO` [H2O2], in the experiment on GOTO cells [3], the LAPTM5 expression entry is on record as “activated”, the “frequency of cell death” value is on record as “frequency of concentration-dependent cell death increased” and the MYCN expression result is reported as “decrease”.

In the case of `CCCC[C@@H](C=O)NC(=O)[C@H](CC(C)C)NC(=O)[C@H](CC(C)C)NC(C)=O` [ALLN] (Ac-Leu-Leu-[Nle]-aldehyde), in experiment [1], the cell death frequency entry is listed as “significantly increased”. In addition, the “accumulation of expressed LAPTM5” value in experiment [2] is “significantly accumulated”.

In the case of `COC(=O)C[C@H](NC(=O)[C@H](C)NC(=O)[C@@H](NC(=O)OCc1ccccc1)C(C)C)C(=O)CF` [zVAD-fmk] (Cbz-Val-Ala-Asp(OMe)-CH2F), the “inhibition of Ad-LAPTM5-induced cell death by caspase inhibitor” value in the experiment on IMR32 cells and in the experiment with GOTO cells [4] was “would not be inhibited” throughout.

Regarding `O=C(O)c1cn(C2CC2)c2cc(N3CCNCC3)c(F)cc2c1=O` [ciprofloxacin], in experiment [5], the LC3-II detection entry was “LC3-II was detected” and the p62/SQSTM1 protein accumulation result is reported as “p62/SQSTM1 protein accumulation was observed”.

For `CC(C)C[C@@H](C=O)NC(=O)[C@H](CC(C)C)NC(=O)[C@H](CC(C)C)NC(=O)OCc1ccccc1` [MG132] (Cbz-Leu-Leu-Leu-aldehyde), the cell death frequency entry in experiment [1] is recorded as “significantly increased”. The “accumulation of expressed LAPTM5” value in experiment [2] was “significantly accumulated”.

As to `C[n+]1ccc(-c2ccccc2)cc1` [MPP+, 1-methyl-4-phenylpridinium], in the experiment on GOTO cells [3], the LAPTM5 expression result is recorded as “activated”, the “frequency of cell death” value is reported as “frequency of concentration-dependent cell death increased” and the MYCN expression entry was “decrease”.

As for `CO/C1=C\C(C)=C\[C@@H](C)[C@@H](O)[C@@H](C)C/C(C)=C/C=C/[C@H](OC)[C@@H]([C@@H](C)[C@@H](O)[C@H](C)[C@@]2(O)C[C@@H](O)[C@H](C)[C@@H](C(C)C)O2)OC1=O` [Bafilomycin A1], the cell death frequency result in experiment [1] is “significantly increased”. For the same compound, in experiment [2], the “accumulation of expressed LAPTM5” value was “significantly accumulated”.

For the origin of these results see patent publication US8216785B2, “Method for detecting neuroblastoma” (Fujifilm Corporation, priority 2008, dated 2012).
